Results taken from patent US11219641B2 («NORMOPHARM» LIMITED LIABILITY COMPANY [RU/RU], priority 2017, dated 2022).
Read-outs that look alike come from different tables or passages of the source.

Assays:
[1] = system: model of chronic alcohol intoxication; details: treatment series
Experimental: (§1) Materials and Methods. White Wistar male rats weighing 200-250 g (n=168) were used as a model object. The investigation was approved by ethical committee of Federal State Budgetary Educational Institution of Higher Professional Education “Ivanovo State Medical Academy”, the Ministry of Health of the Russian Federation” on Mar. 15, 2016; all procedures and experiments on rats were conducted in compliance with the international rules of treating animals used for scientific purposes. Animals were housed in equal rooms in cages of 7 rats in each at 19-21° C. Animals were given 40-50 g of a mixed fodder per animal every day.
(§2) Creating a model of alcohol dependence.
(§3) Preparation dosage and application. […] Each group contained 21 animals.
(§4) Neurological testing. A general assessment of somatic and neurological status of animals was performed in all examined groups.
(§5) In the open field test (OFT), vertical activity, horizontal activity, frequency of dipping into the holes (a hole exploratory test or “burrow reflex”), grooming frequency, and frequency of central zone entries were registered. In OFT, an animal was placed in one and the same square located near the wall. An exposure time for each animal in the model was 5 min. A round OF represented an arena 1 m in diameter and a wall of 0.4 m height with the floor divided into sectors. Three zones were marked in the open field: central, intermediate (6 sectors), peripheral (12 sectors). Two 60 W lamps were located at a height of 1.5 m from the chamber floor over the central field segments. Horizontal activity in the central and peripheral zone, vertical activity, grooming frequency, frequency of defecation, burrow reflexes were fixed during the test. The walls and floor were treated with a wet and dry cloth after each animal.

[2] = system: model of chronic alcohol intoxication; details: after 7 days, treatment series
Experimental: as §1, §2, §3, §4
The time spent in the open and closed arms and in the maze center, duration of grooming in the closed arm, a number of grooming episodes in the closed arm were registered during the elevated plus maze test (EPMT). The tested object was placed in the center of EPM with its nose towards the open arm. The time of testing the animals in the EPM amounted to 5 min. The apparatus used in the test consisted of two arms with an open area at the site of their crossing. One of the maze arms had closed compartments. The maze was installed at a height of 1 m from the floor. The time spent in the open and closed arm, grooming frequency, and rearing frequency were registered.

[3] = system: damaged neurocytes of the pyramidal layer of the forebrain cortex; experiment: Morphometric histological analysis of forebrain cortex neurocytes, prophylaxis series; type: in vivo, Wistar rats; details: 5 mg/kg, prophylactic application; placebo group 34.8%
Experimental: as §2, §3
Histological analysis of the nervous tissue. The brain after craniotomy was wholly removed and fixed in a 10% solution of neutral formalin, in 24 hours a zone of precentral gyrus of the forebrain was exposed by frontal incisions. Preparation of nerve tissue specimens was performed according to a standard procedure (dehydration in ethyl alcohol, xylene) with subsequent fabrication of paraffin blocks. Histological sections of 6 μm thick made on a sliding Microm microtome were stained with hematoxylene and eosin. Section duplicates were Nissl-stained with a reagent kit (Biovitrum Co.) and impregnated with silver. Histological sections were morphometrically examined using BioVision image analyzer (Austria) for counting damaged neurocytes of the pyramidal layer of the forebrain cortex in 10 various fields of vision with subsequent statistical processing of the results. Microphotographs were obtained with the help of the research Micros microscope and DCM 900 digital ocular camera.

[4] = system: model of chronic alcohol intoxication; experiment: Neurological testing (OFT, EPMT), prophylaxis series; type: in vivo, Wistar rats
Experimental: as §2, §3, §4, §5
The time spent in the open and closed arms and in the maze center, duration of grooming in the closed arm, a number of grooming episodes in the closed arm were registered during the elevated plus maze test (EPMT). […]

[5] = system: model of chronic alcohol intoxication; details: prophylaxis series
Description: as §2, §3

[6] = Wistar rats, literature (Ostrenko et al.); cited from earlier work
[7] = system: model of chronic alcohol intoxication; experiment: Observation of abstinence after alcohol withdrawal, treatment series; details: after alcohol solution withdrawal, 5, 10, 30 mg/kg
Experimental: Creating a model of alcohol dependence. The criterion for selecting rats, along with the absence of obvious abnormalities in the state and behavior, was an initial preference for 6% ethyl alcohol over tap water. To determine this preference, a preliminary experiment was conducted during 3 days in the individual cages with a free access to both liquids. Once a selection has been done, 6% ethyl alcohol was offered as the only source of liquid, a week later the concentration of alcohol was increased to 15%. After 2 weeks, alcohol was replaced by tap water.
Preparation dosage and application. The experiment was carried out in two series «prophylaxis» and «treatment» with four groups in each series: (1) dose 30 mg/kg (experimental group 1), (2) dose 10 mg/kg (experimental group 2), (3) dose 5 mg/kg (experimental group 3), (4) placebo group. In the experiments of “prophylaxis” series, the preparation was introduced concurrently with model creation, while in the experiments of “treatment” series it was done after model creation. Each group contained 21 animals. Said preparation was introduced intragastrically via a probe once a day in volume of 0.5 ml per each animal for 14 days.
“Treatment” represents a more rigid model of alcohol intoxication for evaluation of the preparation efficacy.

[8] = 5 mg/kg intragastrically once a day, after 7 days
[9] = 10 mg/kg intragastrically once a day, after 7 days
[10] = 30 mg/kg intragastrically once a day, after 7 days
[11] = 5 mg/kg intragastrically once a day
[12] = 10 mg/kg intragastrically once a day
[13] = 30 mg/kg intragastrically once a day

## O=C1O[C@H]([C@@H](O)CO)C([O-])=C1O.[Li+] [lithium ascorbate]
[1]; [8]
  Frequency of dipping into the hole (OFT): 1.1 times
  Grooming frequency (OFT): 8.9 times
  Horizontal locomotor activity central (OFT): 1.0
  Horizontal locomotor activity peripheral (OFT): 19.3
  Number of boluses (OFT): 15.1 pcs
[1]; [9]
  Frequency of dipping into the hole (OFT): 1.9 times
  Horizontal locomotor activity central (OFT): 1.8
  Number of boluses (OFT): 12.6 pcs
  Vertical locomotor activity (OFT): 1.4
[1]; [10]
  Frequency of dipping into the hole (OFT): 2.0 times
  Horizontal locomotor activity central (OFT): 1.9
  Number of boluses (OFT): 12.2 pcs
  Vertical locomotor activity (OFT): 1.6
[1]; doses 5, 10, 30 mg/kg compared
  dose at which adequate efficacy was noted, treatment purposes: 5 mg/kg
[2]; [11]
  Grooming frequency (EPMT): 9.1 times
  Time spent in the closed arm (EPMT): 270.67 s
  Time spent in the open arm (EPMT): 27.73 s
[2]; [12]
  Grooming frequency (EPMT): 6.3 times
  Time spent in the closed arm (EPMT): 265.19 s
  Time spent in the open arm (EPMT): 34.81 s
  Vertical activity (EPMT): 1.5
[2]; [13]
  Grooming frequency (EPMT): 5.8 times
  Time spent in the closed arm (EPMT): 259.01 s
  Time spent in the open arm (EPMT): 38.26 s
[3]
  amount of the damaged cortex cells: 18.5%
[4]; introduced with alcohol for 2 weeks
  dose from which effective prophylaxis of neurological disorders was noted: ≥ 5 mg/kg
[4]; various dosages during 2 weeks
  vertical activity in neurological tests: increased vertical activity
[5]; applied together with alcohol
  catecholamine content in the animal blood: inhibited the increase of catecholamine content
[5]
  MDA levels in blood serum: decreased MDA levels
[6]
  toxicity class: Class 5
[7]
  cramps during abstinence: No cramps were noted
  number of aggressive incidents during abstinence: reduced the number of aggressive incidents
